Test results reported in patent publication US20260184710A1, “CASITAS B-LINEAGE LYMPHOMA PROTOONCOGENE B (CBL-B) DEGRADING COMPOUNDS AND ASSOCIATED METHODS OF USE” (Arvinas Operations, Inc., priority 2022, published 2026).

Target: T1, Cbl-b (Homo sapiens, UniProt Q13191)
T1 construct: Cbl-b-HiBit KI Jurkat Cells were purchased from Promega; host or cells: Cbl-b-HiBiT knock-in Jurkat cells
Test: Cbl-b Degradation Method B (Nano-Glo HiBiT lytic detection)
Format: cell-based
Conditions: Cbl-b-HiBit KI Jurkat Cells, incubated at least 6-24 hours; for DC50: half maximal degradation, read-out: Cbl-b Degredation Method B IC50; for Dmax: maximum degradation observed, read-out: Cbl-b Degredation Method B Dmax (%)
Outline: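 Cbl-b-HiBiT knock-in Jurkat cells (20,000/well) were treated after ~24 h plating with an 11-point 1:3 series for 6-24 h at 37° C. Remaining Cbl-b measured by Nano-Glo HiBiT lytic luminescence. DC50 and Dmax expressed as % of control.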

T1 sequence (Q13191 whole entry): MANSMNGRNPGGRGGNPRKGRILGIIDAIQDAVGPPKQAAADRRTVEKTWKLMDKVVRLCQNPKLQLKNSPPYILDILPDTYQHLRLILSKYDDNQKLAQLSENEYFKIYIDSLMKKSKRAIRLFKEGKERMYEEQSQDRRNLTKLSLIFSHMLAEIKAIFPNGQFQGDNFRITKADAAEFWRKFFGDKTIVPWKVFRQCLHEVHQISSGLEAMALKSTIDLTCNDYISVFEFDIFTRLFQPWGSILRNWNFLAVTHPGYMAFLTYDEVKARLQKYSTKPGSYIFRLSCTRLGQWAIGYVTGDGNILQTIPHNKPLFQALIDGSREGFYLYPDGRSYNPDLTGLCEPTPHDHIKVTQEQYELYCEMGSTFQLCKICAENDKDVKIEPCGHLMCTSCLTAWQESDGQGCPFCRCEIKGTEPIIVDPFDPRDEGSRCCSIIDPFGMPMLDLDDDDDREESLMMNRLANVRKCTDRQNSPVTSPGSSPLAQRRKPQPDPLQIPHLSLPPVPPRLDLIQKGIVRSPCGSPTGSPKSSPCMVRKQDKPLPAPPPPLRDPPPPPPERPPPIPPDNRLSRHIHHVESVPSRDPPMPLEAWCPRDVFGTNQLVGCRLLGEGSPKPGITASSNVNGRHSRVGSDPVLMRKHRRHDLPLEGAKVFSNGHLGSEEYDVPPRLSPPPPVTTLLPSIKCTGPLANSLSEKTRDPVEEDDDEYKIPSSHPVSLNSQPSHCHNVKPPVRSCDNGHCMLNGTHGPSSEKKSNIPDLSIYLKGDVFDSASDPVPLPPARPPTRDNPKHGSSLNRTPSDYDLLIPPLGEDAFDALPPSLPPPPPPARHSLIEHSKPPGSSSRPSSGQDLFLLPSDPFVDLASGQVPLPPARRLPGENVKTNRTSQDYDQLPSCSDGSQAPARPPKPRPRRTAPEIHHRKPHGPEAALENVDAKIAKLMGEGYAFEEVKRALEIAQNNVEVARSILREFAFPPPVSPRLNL

## Cc1cc(N2CCC(CN3CCC4(CC3)CN(c3ccc5cn(-c6cccc(C7(Cc8nncn8C)COC7)c6)nc5c3)C4)CC2)c(F)c2c1C(=O)N(C1CCC(=O)NC1=O)C2 (stereo not drawn) [Example 261, 3-{4-fluoro-7-methyl-5-[4-({2-[2-(3-{3-[(4-methyl-4H-1,2,4-triazol-3-yl)methyl]oxetan-3-yl}phenyl)-2H-indazol-6-yl]-2,7-diazaspiro[3.5]nonan-7-yl}methyl)piperidin-1-yl]-1-oxo-2,3-dihydro-1H-isoindol-2-yl}piperidine-2,6-dione]
  DC50: > 500 nM

## Cn1cnnc1C[C@]1(c2cccc(-n3cc4c(C(F)(F)F)cc(N5CC6(CCN(CC7CCN(c8ccc9c(c8Cl)CN(C8CCC(=O)NC8=O)C9=O)CC7)CC6)C5)cc4n3)c2)C[C@H](C#N)C1 (stereo partly drawn) [Example 262, (1r,3r)-3-(3-{6-[7-({1-[4-chloro-2-(2,6-dioxopiperidin-3-yl)-1-oxo-2,3-dihydro-1H-isoindol-5-yl]piperidin-4-yl}methyl)-2,7-diazaspiro[3.5]nonan-2-yl]-4-(trifluoromethyl)-2H-indazol-2-yl}phenyl)-3-[(4-methyl-4H-1,2,4-triazol-3-yl)methyl]cyclobutane-1-carbonitrile]
  DC50: 5 to 50 nM
  Dmax: < 35%

## CC(C)n1c(=O)n(C2CCC(=O)NC2=O)c2ccc(N3CCC(O[C@H]4CC[C@@H](CN5CCN(C[C@H]6CCCN(Cc7cc8c(c(C(F)(F)F)c7)CN(c7cccc(C9(Cc%10nncn%10C)COC9)c7)C8=O)C6)C(C)(C)C5)CC4)CC3)cc21 (stereo partly drawn) [Example 263, 3-[2-oxo-3-(propan-2-yl)-5-(4-{[(1r,4r)-4-[(3,3-dimethyl-4-{[(3S)-1-{[2-(3-{3-[(4-methyl-4H-1,2,4-triazol-3-yl)methyl]oxetan-3-yl}phenyl)-3-oxo-7-(trifluoromethyl)-2,3-dihydro-1H-isoindol-5-yl]methyl}piperidin-3-yl]methyl}piperazin-1-yl)methyl]cyclohexyl]oxy}piperidin-1-yl)-2,3-dihydro-1H-1,3-benzodiazol-1-yl]piperidine-2,6-dione]
  DC50: < 5 nM
  Dmax: > 70%

## Cn1cnnc1CC1(c2cccc(N3Cc4c(cc(CN5CCC[C@H](CN6CCN(C[C@H]7CC[C@@H](OC8CCN(c9ccc%10c(c9F)CN(C9CCC(=O)NC9=O)C%10=O)CC8)CC7)CC6(C)C)C5)cc4C(F)(F)F)C3=O)c2)CC1 (stereo partly drawn) [Example 264, 3-[4-fluoro-1-oxo-5-(4-{[(1r,4r)-4-[(3,3-dimethyl-4-{[(3S)-1-{[2-(3-{1-[(4-methyl-4H-1,2,4-triazol-3-yl)methyl]cyclopropyl}phenyl)-3-oxo-7-(trifluoromethyl)-2,3-dihydro-1H-isoindol-5-yl]methyl}piperidin-3-yl]methyl}piperazin-1-yl)methyl]cyclohexyl]oxy}piperidin-1-yl)-2,3-dihydro-1H-isoindol-2-yl]piperidine-2,6-dione]
  DC50: < 5 nM
  Dmax: > 70%

## COc1c(N2CCC(C(=O)N3CCC4(CC3)CN(c3cc5c(c(C(F)(F)F)c3)CN(c3cccc(C6(Cc7nncn7C)COC6)c3)C5=O)C4)CC2)ccc2c1CN(C1CCC(=O)NC1=O)C2=O (stereo not drawn) [Example 265, 3-[4-methoxy-5-(4-{2-[2-(3-{3-[(4-methyl-4H-1,2,4-triazol-3-yl)methyl]oxetan-3-yl}phenyl)-3-oxo-7-(trifluoromethyl)-2,3-dihydro-1H-isoindol-5-yl]-2,7-diazaspiro[3.5]nonane-7-carbonyl}piperidin-1-yl)-1-oxo-2,3-dihydro-1H-isoindol-2-yl]piperidine-2,6-dione]
  DC50: 5 to 50 nM
  Dmax: < 35%
